For 14 compounds, EC50, AC50 and IC50 results are on record in patent US12590062B2, “PD-1/PD-L1 inhibitors” (Gilead Sciences, Inc., priority 2017, dated 2026).

pEC50, pIC50: −log10 of the molar value.

One experiment concerns the target T1, PD-1/PD-L1 interaction (Homo sapiens, UniProt Q9NZQ7).
T1 construct: expressed in transfected cells; host or cells: CHO cells (aAPC-PD-L1) co-cultured with Jurkat cells overexpressing PD-1 and an NFAT-luciferase reporter
The experiment can be described thus: PD-1/PD-L1 NFAT reporter co-culture assay. The conditions noted are these: Jurkat PD-1 NFAT-luciferase cells co-cultured with aAPC-PD-L1 CHO cells, 6 hrs at 37° C.; read-out: EC50 NFAT Luciferase. The class given is cell-based. Put shortly:
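First, CHO cells displaying anti-CD3 antibody and PD-L1 were plated overnight. Next, compound-treated PD-1 Jurkat NFAT-luciferase reporter cells in 2% FBS RPMI were added for 6 h at 37 °C. Finally, ONE-Glo luminescence was read and EC50 values fitted with a four-parameter equation.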

The target in another experiment is T2, PD-L1 (Homo sapiens, UniProt Q9NZQ7).
T2 construct: determine if they can specifically dimerize the extracellular domains of PD-L1
Nature of the experiment: PD-L1/PD-L1 dimerization biochemical protein-protein interaction assay (ALPHA). In kind it is binding. The note with it: compound-induced PD-L1 dimerization, head prints '1 nM' (0.5 nM His-tagged PD-L1 and 0.5 nM FLAG-tagged PD-L1), read-out: AC50 PDL1 Dimer Alpha 1 nM. Here is the method: PD-L1/PD-L1 Dimerization Biochemical Protein-Protein Interaction Assay:
Compounds were tested in biochemical protein-protein interaction assays to determine if they can specifically dimerize the extracellular domains of PD-L1. Dimerization of the proteins (His-tagged PD-L1 and FLAG-tagged PD-L1) is measured using a bead based Amplified Luminescent Proximity Homogeneous Assay (ALPHA) platform. […] Assays are performed in 25 mM Hepes (pH 7.4), 150 mM NaCl, 3.4 mM EDTA, 0.005% Tween 20, and 0.01% BSA. Final protein concentration in the assays were 0.5 nM (His tagged PD-L) and 0.5 nM (FLAG tagged PD-L1). After an assay reaction time of 2 hours at 25° C., 20 μg/mL (final assay concentration) ALPHA assay acceptor beads (anti-His coated) were added and incubated for 60 minutes at 25° C. Binding was measured following a final 60 minute incubation with 40 μg/mL (final assay concentration) ALPHA assay donor beads (anti-FLAG coated). AC50 values were calculated from the fit of the dose-response curves to a four-parameter equation (Table 3).

The target of the next experiment is PD-1/PD-L1 (Homo sapiens, UniProt Q9NZQ7). Nature of the experiment: PD-1/PD-L1 biochemical protein-protein interaction assay (ALPHA). The class given is binding. The note with it: 0.3 nM His tagged PD-L1, 2.5 nM biotinylated Fc-PD-1, 60 minutes at 25° C., read-out: IC50 PD-L1-PD-1 Alpha IC50-mono PD-L1-fcP-D1. Put shortly: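 His-PD-L1 ECD 0.3 nM + biotin-Fc-PD-1 2.5 nM (final), 25 mM Hepes pH 7.4, 150 mM NaCl, 3.4 mM EDTA; 60 min, 25° C; anti-His acceptor/streptavidin donor ALPHA beads; decreased signal = blocked binding; 4-parameter IC50.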
Chain of PD-1/PD-L1 (Q9NZQ7 19-238 limits assumed): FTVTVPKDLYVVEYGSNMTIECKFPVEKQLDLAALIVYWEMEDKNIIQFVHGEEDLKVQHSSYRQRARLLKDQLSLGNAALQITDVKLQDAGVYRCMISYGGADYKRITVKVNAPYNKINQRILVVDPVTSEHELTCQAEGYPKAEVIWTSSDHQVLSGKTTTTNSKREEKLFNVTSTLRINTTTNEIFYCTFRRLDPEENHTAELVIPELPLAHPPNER

T1 sequence (Q9NZQ7 19-290): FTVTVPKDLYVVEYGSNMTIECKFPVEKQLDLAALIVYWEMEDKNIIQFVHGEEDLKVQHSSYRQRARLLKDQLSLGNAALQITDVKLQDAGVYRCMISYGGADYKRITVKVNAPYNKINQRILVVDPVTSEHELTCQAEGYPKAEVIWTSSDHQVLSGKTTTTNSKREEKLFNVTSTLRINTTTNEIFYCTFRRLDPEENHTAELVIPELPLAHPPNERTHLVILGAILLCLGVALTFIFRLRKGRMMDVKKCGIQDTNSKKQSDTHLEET
T2 sequence (Q9NZQ7 19-238 limits assumed): as the sequence (Q9NZQ7 19-238 limits assumed) above
T2 sequence (Q9NZQ7 19-238 limits assumed): as above

On to `Cc1c(COc2cc(OCc3cncc(C#N)c3)c(CNC[C@@H](O)CC(=O)O)cc2Cl)cccc1-c1cccc(COc2cc(OCc3cncc(C#N)c3)c(CNC[C@@H](O)CC(=O)O)cc2Cl)c1C` [Example 66, (3S,3′S)-4,4′-((((((2,2′-dimethyl-[1,1′-biphenyl]-3,3′-diyl)bis(methylene))bis(oxy))bis(5-chloro-2-((5-cyanopyridin-3-yl)methoxy)-4,1-phenylene))bis(methylene))bis(azanediyl))bis(3-hydroxybutanoic acid)], for which the pEC50 at PD-1/PD-L1 interaction was 6.47. The AC50 at PD-L1 was determined as 370 nM. Further, the negative-log IC50 (pIC50) on PD-1/PD-L1 is 9.40.
On the same counts, the results for `Cc1c(COc2nc(OCc3cccnc3)c(CNC[C@@H](O)CC(=O)O)cc2Br)cccc1-c1cccc(COc2nc(OCc3cccnc3)c(CNC[C@@H](O)CC(=O)O)cc2Br)c1C` [Example 137, (3S,3′S)-4,4′-((((((2,2′-dimethyl-[1,1′-biphenyl]-3,3′-diyl)bis(methylene))bis(oxy))bis(5-bromo-2-(pyridin-3-ylmethoxy)pyridine-6,3-diyl))bis(methylene))bis(azanediyl))bis(3-hydroxybutanoic acid)] are 5.84, 195 nM and 9.22.
Turning to `Cc1c(COc2nc(OCCCC#N)c(CNC[C@@H](O)CC(=O)O)cc2Br)cccc1-c1cccc(COc2nc(OCCCC#N)c(CNC[C@@H](O)CC(=O)O)cc2Br)c1C` [Example 144, (3S,3′S)-4,4′-((((((2,2′-dimethyl-[1,1′-biphenyl]-3,3′-diyl)bis(methylene))bis(oxy))bis(5-bromo-2-(3-cyanopropoxy)pyridine-6,3-diyl))bis(methylene))bis(azanediyl))bis(3-hydroxybutanoic acid)], the pEC50 on PD-1/PD-L1 interaction is 6.70. Moreover, the half-maximal activity concentration (AC50) on PD-L1 came to 206 nM.
On the same counts, the results for `COc1nc(OCc2cccc(-c3cccc(COc4nc(OC)c(CNC[C@H](O)CC(=O)O)cc4Br)c3Cl)c2Cl)c(Br)cc1CNC[C@H](O)CC(=O)O` [Example 191, (3R,3′R)-4,4′-((((((2,2′-Dichloro-[1,1′-biphenyl]-3,3′-diyl)bis(methylene))bis(oxy))bis(5-bromo-2-methoxypyridine-6,3-diyl))bis(methylene))bis(azanediyl))bis(3-hydroxybutanoic acid)] are 7.22 and at least 10000 nM.
On the same counts, the results for `N#Cc1cncc(COc2nc(OCc3cccc(-c4cccc(COc5nc(OCc6cncc(C#N)c6)c(CNC[C@@H](O)CC(=O)O)cc5Br)c4Cl)c3Cl)c(Br)cc2CNC[C@@H](O)CC(=O)O)c1` [Example 193, (3S,3′S)-4,4′-((((((2,2′-Dichloro-[1,1′-biphenyl]-3,3′-diyl)bis(methylene))bis(oxy))bis(5-bromo-2-((5-cyanopyridin-3-yl)methoxy)pyridine-6,3-diyl))bis(methylene))bis(azanediyl))bis(3-hydroxybutanoic acid)] are 7.00 and 132 nM.
Taken in the same sequence, the figures for `N#Cc1cncc(COc2nc(OCc3cccc(-c4cccc(COc5nc(OCc6cncc(C#N)c6)c(CNC[C@H](O)CC(=O)O)cc5Br)c4Cl)c3Cl)c(Br)cc2CNC[C@H](O)CC(=O)O)c1` [Example 196, (3R,3′R)-4,4′-((((((2,2′-Dichloro-[1,1′-biphenyl]-3,3′-diyl)bis(methylene))bis(oxy))bis(5-bromo-2-((5-cyanopyridin-3-yl)methoxy)pyridine-6,3-diyl))bis(methylene))bis(azanediyl))bis(3-hydroxybutanoic acid)] were 6.82 and 223 nM.
On to `Cc1c(COc2cc(OCc3cncc(C#N)c3)c(CNC[C@@H](O)CC(=O)O)cc2Cl)cccc1-c1cccc(-c2ccc3oc(CNC[C@@H](O)CC(=O)O)cc3c2)c1C` [Example 210, (S)-4-(((5-(3′-((4-((((S)-3-carboxy-2-hydroxypropyl)amino)methyl)-2-chloro-5-((5-cyanopyridin-3-yl)methoxy)phenoxy)methyl)-2,2′-dimethyl-[1,1′-biphenyl]-3-yl)benzofuran-2-yl)methyl)amino)-3-hydroxybutanoic acid], for which, at PD-1/PD-L1 interaction, the pEC50 was 6.94. Further, the concentration at half-maximal activity (AC50) at PD-L1 is 83.1 nM.
In the case of `Cc1c(COc2cc(OCc3cc(C#N)ccn3)c(CNC[C@@H](O)CC(=O)O)cc2Cl)cccc1-c1cccc(COc2cc(OCc3cc(C#N)ccn3)c(CNC[C@@H](O)CC(=O)O)cc2Cl)c1C` [Example 225, (3S,3′S)-4,4′-((((((2,2′-dimethyl-[1,1′-biphenyl]-3,3′-diyl)bis(methylene))bis(oxy))bis(5-chloro-2-((4-cyanopyridin-2-yl)methoxy)-4,1-phenylene))bis(methylene))bis(azanediyl))bis(3-hydroxybutanoic acid)], the pEC50 on PD-1/PD-L1 interaction was 6.84. Moreover, at PD-L1, the AC50 stood at 423 nM.
For the compound `CC(C)(NCc1cc(Cl)c(O[C@H]2CCc3c(-c4cccc(-c5ccc(S(N)(=O)=O)cc5)c4Cl)cccc32)nc1OCc1cncc(C#N)c1)C(=O)O` [Example 289, (S)-2-(((5-chloro-6-((4-(2-chloro-4′-sulfamoyl-[1,1′-biphenyl]-3-yl)-2,3-dihydro-1H-inden-1-yl)oxy)-2-((5-cyanopyridin-3-yl)methoxy)pyridin-3-yl)methyl)amino)-2-methylpropanoic acid], the pEC50 at PD-1/PD-L1 interaction was 7.15. For the same compound, the AC50 on PD-L1 was at least 10000 nM. In addition, at PD-1/PD-L1, the negative logarithm of the IC50 (pIC50) is 10.12.
Taken in the same sequence, the figures for `CN1CCCC1c1ccc(-c2cccc(-c3cccc4c3CC[C@@H]4Oc3nc(OCc4cncc(C#N)c4)c(CN[C@@](C)(CO)C(=O)O)cc3Cl)c2Cl)cc1` (stereo partly drawn) [Example 290, (2S)-2-(((5-chloro-6-(((1S)-4-(2-chloro-4′-(1-methylpyrrolidin-2-yl)-[1,1′-biphenyl]-3-yl)-2,3-dihydro-1H-inden-1-yl)oxy)-2-((5-cyanopyridin-3-yl)methoxy)pyridin-3-yl)methyl)amino)-3-hydroxy-2-methylpropanoic acid] were 6.51, 25.1 nM and 10.17.
Take `N#Cc1cncc(COc2nc(O[C@H]3CCc4c(-c5cccc(-c6ccc(OCCNCCO)cc6)c5Cl)cccc43)c(Cl)cc2CNC[C@@H](O)CC(=O)O)c1` [Example 291, (S)-4-(((5-chloro-6-(((S)-4-(2-chloro-4′-(2-((2-hydroxyethyl)amino)ethoxy)-[1,1′-biphenyl]-3-yl)-2,3-dihydro-1H-inden-1-yl)oxy)-2-((5-cyanopyridin-3-yl)methoxy)pyridin-3-yl)methyl)amino)-3-hydroxybutanoic acid]: on PD-1/PD-L1 interaction, the pEC50 was 7.34. On PD-L1, the half-maximal activity concentration (AC50) is 27.5 nM. Besides, the negative-log IC50 (pIC50) on PD-1/PD-L1 was 9.76.
For `Cc1c(OCc2cc(OCc3cncc(C#N)c3)c(CN[C@@](C)(CO)C(=O)O)cc2Cl)cccc1-c1cccc(-c2ccc(OCCN[C@@](C)(CO)C(=O)O)cc2)c1C` [Example 388, (S)-2-((4-(((4″-(2-(((S)-2-carboxy-1-hydroxypropan-2-yl)amino)ethoxy)-2,2′-dimethyl-[1,1′:3′,1″-terphenyl]-3-yl)oxy)methyl)-5-chloro-2-((5-cyanopyridin-3-yl)methoxy)benzyl)amino)-3-hydroxy-2-methylpropanoic acid], the pEC50 on PD-1/PD-L1 interaction was 6.65. In addition, the AC50 at PD-L1 is at least 10000 nM.
Taken in the same sequence, the figures for `Cc1c(COc2cc(OCc3cncc(C#N)c3)c(CNC[C@@H](O)CC(=O)O)cc2Cl)cccc1-c1cccc(-c2ccc3cc(CNC[C@@H](O)CC(=O)O)ccc3n2)c1C` [Example 398, (S)-4-(((2-(3′-((4-((((S)-3-carboxy-2-hydroxypropyl)amino)methyl)-2-chloro-5-((5-cyanopyridin-3-yl)methoxy)phenoxy)methyl)-2,2′-dimethyl-[1,1′-biphenyl]-3-yl)quinolin-6-yl)methyl)amino)-3-hydroxybutanoic acid] were 5.96 and 728 nM.
On to `Cc1c(COc2cc(OCc3cncc(C#N)c3)c(CNC[C@@H](O)CC(=O)O)cc2Cl)cccc1-c1cccc(-c2ccc3sc(CNC[C@@H](O)CC(=O)O)nc3c2)c1C` [Example 399, (S)-4-(((5-(3′-((4-((((S)-3-carboxy-2-hydroxypropyl)amino)methyl)-2-chloro-5-((5-cyanopyridin-3-yl)methoxy)phenoxy)methyl)-2,2′-dimethyl-[1,1′-biphenyl]-3-yl)benzo[d]thiazol-2-yl)methyl)amino)-3-hydroxybutanoic acid], for which, at PD-1/PD-L1 interaction, the negative logarithm of the EC50 (pEC50) was 6.50. Also, the concentration at half-maximal activity (AC50) on PD-L1 came out at 289 nM.
